Tests used:
Escherichia coli DH5α = assay: MIC assay, E. coli DH5α; format: cell-based
Experimental: (§1) MIC assays were performed in duplicate in 96-well microtiter plates on the basis of the protocol recommended by the Clinical and Laboratory Standards Institute (Cockerill, 2012, Clinical and Laboratory Standards Institute). All presented data are the average of at least three independent assays. Stock solutions of malacidin or daptomycin (2 mg ml^−1 in H2O) were added to the first well in a row and serially diluted (twofold per transfer) across the microtiter plate. CaCl2 was supplemented to media at a final concentration of 15 mM and fetal bovine serum (ATCC) was added to media (1:10) to test the effect of serum. Overnight cultures of bacteria were diluted 5,000-fold, and 50 μl was used as an inoculum in each well. MIC values were determined by visual inspection after 18 h incubation (30° C., static growth). For the enhanced calcium titration experiments, standard MIC assays were performed with methicillin-resistant Staphylococcus aureus (MRSA) PFGE strain type USA300 in media supplemented with CaCl2 at: 25.0, 18.8, 14.1, 7.03, 3.52, 2.50, 1.76, 0.880, 0.440, 0.250 and 0 mM. To assess the effects of monovalent and divalent cations on malacidin activity, standard MIC assays were performed with MRSA USA300 in media supplemented with 15 mM CaCl2, MgCl2, MnCl2, ZnCl2, SrCl2, NaCl and KCl. To evaluate the effects of pulmonary surfactants on activity against a community-acquired pneumonia-causing pathogen, standard MIC assays were performed with Streptococcus pneumoniae TCH8431 in media supplemented with both 15 mM […] and Survanta (beractant) at a final concentration of 5, 1, 0.5, 0.25 or 0% (volume/volume (v/v) percent).

[1] = test system: Pseudomonas aeruginosa PAO1; assay: MIC assay, P. aeruginosa; format: cell-based
Experimental: as §1

MRSA USA300 = assay: Membrane depolarization assay (DiBAC4); format: cell-based, Staphylococcus aureus; settings: S. aureus cells pretreated with DiBAC4; 20 μg ml^−1
Experimental: The effects of malacidin on membrane integrity was assessed using SYTOX green. In brief, single colonies of MRSA USA300 were grown in LB media with and without 15 mM CaCl2 to an OD600 nm of 0.35. Nine hundred microlitres of cells were mixed with 100 μL of 17 μM SYTOX green dye (Thermo Fisher). The resulting mixture was incubated for 5 min at 22° C., and then distributed to a microtiter plate at 50 μl per well. An initial reading of fluorescence pre-antibiotic addition was measured at excitation and emission wavelengths of 488 nm and 523 nm, respectively. Fifty microlitres of antibiotics was added to respective wells at a final concentration of 20 μg ml^−1. Measurements were immediately collected for 10 min. To assess the effects of malacidin on membrane depolarization, similar assays were set up using the membrane potential probe, DiBAC4 (bis-(1,3-dibutylbarbituric acid)trimethine oxonol). Single colonies of MRSA USA300 were grown in LB media with and without 15 mM CaCl2 to an OD600 nm of 0.35. Nine hundred microlitres of cells were mixed with 100 μl of 20 μg ml DiBAC4dye (Thermo Fisher). The resulting mixture was incubated for 5 min at 22° C., and then distributed to a microtiter plate at 50 μl per well. An initial reading of fluorescence pre-antibiotic addition was measured at excitation and emission wavelengths of 492 nm and 515 nm, respectively. […]

malacidin A
MIC (Escherichia coli DH5α): >100 µg/mL | MIC [1]: >100 µg/mL | Loss of membrane potential (DiBAC4) (MRSA USA300): no significant loss of membrane potential
